What was measured:
mouse PXR = biological target: T1, mouse PXR (Mus musculus, UniProt O54915); experiment: GAL-mouse PXR luciferase reporter gene assay in transfected CV-1 cells; format: cell-based; details: 10 μM; CV-1 cells; FIG. 3(a), FIG. 8(a)
T1 sequence (O54915 104-431): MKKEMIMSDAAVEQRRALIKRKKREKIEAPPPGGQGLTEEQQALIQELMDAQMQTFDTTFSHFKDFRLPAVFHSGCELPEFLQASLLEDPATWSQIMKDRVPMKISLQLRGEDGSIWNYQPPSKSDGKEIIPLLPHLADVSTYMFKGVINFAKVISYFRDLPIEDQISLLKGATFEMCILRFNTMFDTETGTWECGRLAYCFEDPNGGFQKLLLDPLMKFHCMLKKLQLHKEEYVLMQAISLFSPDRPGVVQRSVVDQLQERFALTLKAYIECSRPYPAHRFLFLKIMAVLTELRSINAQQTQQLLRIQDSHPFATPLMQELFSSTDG
Method: CV-1 cells were transiently transfected with a GAL-mouse PXR expression vector, a GAL4 reporter construct, and a β-galactosidase vector as an internal control. Where noted, the bile acid transporter NTCP was added to the transfection to promote the transport of membrane-impermeable bile acids. Transfected cells were exposed to the indicated compounds (10 μM each), and fold activation was determined using luciferase and β-galactosidase enzyme activity assays. […] The transfected CV-1 cells were treated with multiple concentrations of each sterol. Error bars in this figure and subsequent figures represent the standard error of the mean (SEM) from representative experiments.
It is questioned whether β-cholestane-3α, 7α, 12α-triol (Triol) levels were elevated in whole liver extracts from CYP27 −/− mice. To show the level of 5β-cholestane-3α, 7α, 12α-triol in mouse liver extract, wild-type or CYP27 −/−mouse liver tissue (0.5 g) was extracted with 7.5 ml of ethyl acetate/methanol (2:1, vol/vol) along with 5β-cholestane-3β,5α,6β-triol (25 μg) as an internal control for extraction efficiency. […] The extraction was repeated three times, and the organic fraction was pooled and evaporated. To remove the vast excess of cholesterol that interferes with subsequent gas chromatography-mass spectroscopy analysis, the evaporated residue was dissolved in 0.5 ml of chloroform/acetone (35:25, vol/vol) and applied to a Bond Elut SI cartridge (Varian, 500 mg). Cholesterol was removed by washing with 6 ml of chloroform/acetone (35:25, vol/vol), and sterols were eluted with 7 ml of chloroform/acetone/methanol (35:25:20, vol/vol/vol). The sterol fraction was evaporated and dissolved in acetonitrile, and a portion was silylated with N,O-bis(trimethylsilyl)-trifluoroacetamide containing 1% trimethylchlorosilane (Pierce). The silylated material was analyzed by using a Shimadzu model GC-17A gas chromatograph with a QP5000 mass spectral detector and a Hewlett-Packard Ultra 2 (cross-linked-siloxane) column. The injector port was kept at 250° C., interface temperature was kept at 280° C., and oven temperature was kept at 50° C. followed by a gradient of 30° C. min^−1 up to 300° C. The electron impact ionization source was at 70 eV. 5β-cholestane-3α, 7α, 12α-triol levels were determined by comparison to a standard curve. For transfection studies, the sterol fraction was dissolved in DMSO and added to the cell-culture media. containing DMEM with 10% delipidated FBS.

[1] = tested on: PXR target genes cyp3a11, cyp2c, and oatp2; experiment: Northern analysis of PXR target genes in primary mouse hepatocytes; format: cell-based; details: 10 μM, 24 h, FIG. 5
Method: Primary mouse hepatocytes were treated with compounds (10 μM), and Northern analysis was performed using the probes as described in Example III.
Additionally, a Northern blot analysis of PXR target genes can be used to determine whether or not a molecule or compound is a PXR agonist. […] In this approach, hepatocytes are isolated, cultured in vitro, and exposed to a molecule or compound suspected to be a PXR agonist. Total RNA of the hepatocytes is isolated and subject to Northern blot analysis with probes of PXR target genes' fragments. The PXR target genes have transcriptional regulatory regions that interact with the DNA binding domain of a PXR. When a PXR agonist interacts or binds to the ligand binding domain of a PXR, the DNA binding domain of a PXR interacts with the transcriptional regulatory region of the target genes and activates the expression of the target genes. Consequently, an enhanced expression of target genes is observed in the Northern blot analysis. Commonly used target genes' fragments include cyp3a11, nucleotides from #1,065 to #1,569 of GenBank accession no. X60452; cyp2c, nucleotides from #787 to #1,193 of GenBank accession no. AK008580; and oatp2, nucleotides 2,124-2,486 of GenBank accession no. NM_021471. gapdh, nucleotides from #590 to #1,089 of GenBank accession no. NM_008094, is used as a control since gapdh is not regulated by the activation of a PXR. […]

Structure (SMILES): CC(=O)[C@H]1[C@H](C#N)C[C@H]2[C@@H]3CC=C4C[C@@H](O)CC[C@]4(C)[C@H]3CC[C@@]21C [PCN, pregnenolone-16α-carbonitrile]
- activation of GAL-mouse PXR (in words) (mouse PXR): very effective agonist
- induction of PXR target genes cyp3a11, cyp2c, oatp2 (in words) [1]: activated expression of the PXR target genes cyp3a11, cyp2c, and oatp2

Source: US20040019027A1, “Method of treating cerebrotendinous xanthomatosis” (priority 2002, published 2004)
